Experiment [1] concerns the target D. immitis Slo-1 (Dirofilaria immitis, UniProt I0DFK5). Kind of experiment: D. immitis Slo-1 - action at a recombinant D. immitis cell line (membrane potential, FLIPR). It is filed as cell-based.
The subject of experiment [2] is H. contortus and/or T. colubriformis. Kind of experiment: In vivo assay 3: gastro intestinal nematodes H. contortus and T. colubriformis in jirds. The settings on record: jirds (Meriones unguiculatus), at ≤1.0 mg/kg intraperitoneal, treated once on Day 6 after infection.
Procedure: In Vivo Assay 3: Gastro Intestinal Nematodes of H. contortus (Haemonchus contortus) and T. colubriformis (Trichostrongylus colubriformis)
Jirds (Meriones unguiculatus), immunosuppressed by administration of rodent feed containing hydrocortisone 21-acetate, were experimentally infected with third instar larvae each of T. colubriformis and H. contortus by oral gavage and were treated once orally or intraperitoneally with the formulated test compound on Day 6 after infection. Three days after treatment, jirds were euthanized and dissected to recover H. contortus from stomach and T. colubriformis from the small intestine. Efficacy is expressed as a % reduction in worm numbers in comparison with a placebo treated group, using the Abbot's formula.
The test system of experiment [3] is A. viteae. The settings on record: jirds (Meriones unguiculatus), at ≤25.0 mg/kg per oral, treated once, necropsy 12 weeks after infection.
Source text: Jirds (Meriones unguiculatus), experimentally infected with infective A. viteae larvae via subcutaneous injection were subsequently treated once with the formulated test compound by oral gavage or intraperitoneally. At necropsy 12 weeks after infection, efficacy was expressed as a % reduction in worm numbers in comparison with the placebo treated group, using the Abbot's formula.

Like-named read-outs stand apart in the source and are kept apart here.

D. immitis Slo-1, sequence (I0DFK5 1-1119): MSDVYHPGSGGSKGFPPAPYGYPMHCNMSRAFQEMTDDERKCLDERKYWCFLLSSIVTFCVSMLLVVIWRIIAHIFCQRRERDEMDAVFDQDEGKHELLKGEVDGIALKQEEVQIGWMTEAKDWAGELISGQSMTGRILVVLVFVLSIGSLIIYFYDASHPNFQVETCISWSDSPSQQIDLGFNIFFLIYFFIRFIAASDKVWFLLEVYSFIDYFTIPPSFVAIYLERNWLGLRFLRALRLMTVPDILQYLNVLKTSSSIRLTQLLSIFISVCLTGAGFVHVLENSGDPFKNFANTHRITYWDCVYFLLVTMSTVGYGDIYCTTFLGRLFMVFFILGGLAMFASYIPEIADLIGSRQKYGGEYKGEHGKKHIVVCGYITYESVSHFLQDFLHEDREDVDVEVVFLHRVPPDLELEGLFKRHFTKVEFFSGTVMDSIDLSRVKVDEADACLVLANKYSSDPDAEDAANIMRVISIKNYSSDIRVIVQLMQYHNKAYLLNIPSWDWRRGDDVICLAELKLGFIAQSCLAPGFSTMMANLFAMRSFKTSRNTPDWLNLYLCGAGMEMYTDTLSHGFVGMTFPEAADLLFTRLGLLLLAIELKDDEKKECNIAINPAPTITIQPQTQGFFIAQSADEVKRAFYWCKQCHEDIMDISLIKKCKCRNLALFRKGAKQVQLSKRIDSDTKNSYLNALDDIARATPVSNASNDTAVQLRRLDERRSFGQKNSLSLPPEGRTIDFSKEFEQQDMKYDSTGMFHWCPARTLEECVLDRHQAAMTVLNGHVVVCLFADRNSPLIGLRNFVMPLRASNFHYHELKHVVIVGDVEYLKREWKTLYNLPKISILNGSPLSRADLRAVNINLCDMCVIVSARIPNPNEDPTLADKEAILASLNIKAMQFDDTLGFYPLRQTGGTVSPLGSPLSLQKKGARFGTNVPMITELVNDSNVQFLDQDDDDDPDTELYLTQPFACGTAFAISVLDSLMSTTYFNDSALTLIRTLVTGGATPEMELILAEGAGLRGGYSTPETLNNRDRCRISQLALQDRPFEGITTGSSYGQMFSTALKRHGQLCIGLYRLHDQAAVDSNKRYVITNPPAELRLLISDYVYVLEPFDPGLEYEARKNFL

For the compound `O=C(N[C@H]1CCOc2ccccc21)c1cnc2c(-c3cc(Cl)cc(Cl)c3)c(F)ccc2c1N1CCOC2CC21` (stereo partly drawn) [Example 13, 4-(2-oxa-5-azabicyclo[4.1.0]heptan-5-yl)-N—((S)-chroman-4-yl)-8-(3,5-dichlorophenyl)-7-fluoroquinoline-3-carboxamide], the EC50 in experiment [1] lay within 0.001 to 0.01 µM.

Consider `N=S1(=O)CC(c2c(C(=O)N[C@H]3CCOc4ccccc43)cnc3c(-c4cc(F)cc(F)c4F)c(F)ccc23)C1` (stereo partly drawn) [Example 10, N-[(4S)-3,4-dihydro-2H-chromen-4-yl]-7-fluoro-4-(1-imino-1-oxido-1lambda^4-thietan-3-yl)-8-(2,3,5-trifluorophenyl) quinoline-3-carboxamide], for which the “activity (% reduction in worm numbers)” value in experiment [2] was found to be 100%. The EC50 in experiment [1] fell in the range of 0.001 to 0.01 µM.

Turning to `O=C(N[C@H]1CCOc2ccccc21)c1cnc2c(-c3cc(F)cc(F)c3F)c(F)ccc2c1C1C[S+]([O-])C1` (single isomer, unassigned) [Example 5], in experiment [2], the “activity (% reduction in worm numbers)” value came to 100%.

As to `O=C(N[C@H]1CCOc2ccccc21)c1cnc2c(-c3cc(F)cc(F)c3F)c(F)ccc2c1C1CS(=O)(=O)C1` [Example 3, N-[(4S)-3,4-dihydro-2H-chromen-4-yl]-4-(1,1-dioxidothietan-3-yl)-7-fluoro-8-(2,3,5-trifluorophenyl) quinoline-3-carboxamide], the EC50 in experiment [1] fell in the range of 0.01 to 0.1 µM.

On to `O=C1CN(c2c(C(=O)N[C@H]3CCOc4ccccc43)cnc3c(-c4cc(F)cc(F)c4F)c(F)ccc23)CCN1` [Example 16, N—((S)-chroman-4-yl)-7-fluoro-4-(3-oxopiperazin-1-yl)-8-(2,3,5-trifluorophenyl) quinoline-3-carboxamide], for which, in experiment [2], the “activity (% reduction in worm numbers)” value worked out at 100%.

`O=C(N[C@H]1CCOc2ccccc21)c1cnc2c(-c3cc(F)cc(F)c3F)c(F)ccc2c1[C@H]1CCOC1` [Example 9, N-[(4S)-3,4-dihydro-2H-1-benzopyran-4-yl]-7-fluoro-4-(oxolan-(3R)-yl)-8-(2,3,5-trifluorophenyl) quinoline-3-carboxamide]: in experiment [2], the “activity (% reduction in worm numbers)” value stood at 100%. The EC50 in experiment [1] was 0.001 to 0.01 µM.

Turning to `O=C1CC(c2c(C(=O)N[C@H]3CCOc4ccccc43)cnc3c(-c4cc(F)cc(F)c4F)c(F)ccc23)C1` [Example 1, N-[(4S)-3,4-dihydro-2H-chromen-4-yl]-7-fluoro-4-(3-oxocyclobutyl)-8-(2,3,5-trifluorophenyl) quinoline-3-carboxamide], the “activity (% reduction in worm numbers)” value in experiment [2] and in experiment [3] was 100% in each case. For the same compound, the EC50 in experiment [1] was 0.001 to 0.01 µM.

As for `O=C(N[C@H]1CCOc2ccccc21)c1cnc2c(-c3cc(F)cc(F)c3F)c(F)ccc2c1C1CCOC1` (stereo partly drawn) [Example 7, N-[(4S)-3,4-dihydro-2H-1-benzopyran-4-yl]-7-fluoro-4-(oxolanyl)-8-(2,3,5-trifluorophenyl) quinoline-3-carboxamide], in experiment [1], the EC50 was 0.001 to 0.01 µM.

Turning to `O=C(N[C@H]1CCOc2ccccc21)c1cnc2c(-c3cc(F)cc(F)c3F)c(F)ccc2c1[C@H]1C[C@H](F)C1` [Example 15, N—((S)-chroman-4-yl)-7-fluoro-4-((1R,3S)-3-fluorocyclobutyl)-8-(2,3,5-trifluorophenyl) quinoline-3-carboxamide], the “activity (% reduction in worm numbers)” value in experiment [2] stood at 100%. For the same compound, the EC50 in experiment [1] lay in the range of 0.001 to 0.01 µM.

In the case of `O=C(N[C@H]1CCOc2ccccc21)c1cnc2c(-c3cc(F)cc(F)c3F)c(F)ccc2c1[C@@H]1CCOC1` [Example 8, N-[(4S)-3,4-dihydro-2H-1-benzopyran-4-yl]-7-fluoro-4-(oxolan-(3S)-yl)-8-(2,3,5-trifluorophenyl) quinoline-3-carboxamide], the “activity (% reduction in worm numbers)” value in experiment [2] is 100%. For the same compound, the EC50 in experiment [1] fell in the range of 0.001 to 0.01 µM.

`O=C(N[C@H]1CCOc2ccccc21)c1cnc2c(-c3cc(F)cc(F)c3F)c(F)ccc2c1C1C[S+]([O-])C1` (single isomer, unassigned) [Example 6]: in experiment [1] (read-out: pE50, stable CHO cell line expressing D. immitis Slo-1, voltage sensitive dye, upper limit in μM), the EC50 was in the range of 0.1 to 1 µM.

These data come from patent US20250129094A1, “NEW QUINOLINE DERIVATIVES” (ELANCO ANIMAL HEALTH GMBH, priority 2021, published 2025).
